ChEMBL document CHEMBL4725324, “In vitro and in vivo evaluation of the antimalarial MMV665831 and structural analogs” (Bioorg Med Chem Lett, 2020)
Activity calls are given as the source filed them. The calls are words filed in the database; no cut-off is given here.

How the values were obtained:
Plasmodium falciparum = experiment: Antimalarial activity against Plasmodium falciparum 3D7 assessed as reduction in parasite growth incubated for 48 hrs; format: functional, organism-based; conditions: 3D7, 48 h
[1] = Stability in mouse plasma assessed as carboxylesterase-mediated reduction in parent compound incubated for over 120 mins; format: ADME, cell-free; conditions: 2 h
[2] = Stability in mouse hepatocytes assessed as half life; format: ADME, cell-based, Hepatocyte
Plasmodium berghei = experiment: Antimalarial activity against blood-stage Plasmodium berghei infected in mouse assessed as reduction in parasite growth at 40 mg/kg, po; format: functional, organism-based
[3] = Solubility of compound in CDCl3; format: physicochemical
[4] = Stability in methanolic diethylamine at 40 degC measured after 2 days 1H-NMR analysis; format: physicochemical; conditions: 48 h; time 2 day
[5] = Solubility of compound in D2O; format: physicochemical
[6] = Drug metabolism in 0.1 M DCl in D20 assessed as ethyl 2-benzamido-4-deuterio-6-(dimethylaminomethyl)-7-hydroxy-benzothiophene-3-carboxylate formation at 90 degC after 24 hrs
[7] = Stability in D2O at 50 degC measured after 7 days HRMS analysis; format: physicochemical; conditions: 168 h; time 7 day
[8] = Stability in methanolic diethylamine at 40 degC measured after 2 days HRMS analysis; format: physicochemical; conditions: 48 h; time 2 day
[9] = Stability in D2O at 90 degC measured after 1 day HRMS analysis; format: physicochemical; conditions: 24 h

Structure (SMILES)	EC50 (Plasmodium falciparum)	other results
CCOC(=O)c1c(NC(=O)c2ccc(Cl)cc2)sc2c(O)c(CN(CC)CC)ccc12	70 nM	
CCCN(CCC)Cc1ccc2c(C(=O)OCC)c(NC(=O)c3ccccc3)sc2c1O	16 nM	
CCOC(=O)c1c(NC(=O)c2ccc(OC)cc2)sc2c(O)c(CN(CC)CC)ccc12	66 nM	
O[C@@H](c1cc(C(F)(F)F)nc2c(C(F)(F)F)cccc12)[C@H]1CCCCN1 [(S,R)-MEFLOQUINE]	16 nM	
CCN(CC)Cc1ccc2c(C(=O)OC)c(NC(=O)c3ccccc3)sc2c1O	53 nM	
CCOC(=O)c1c(NC(=O)c2ccccc2)sc2c(O)c(CN3CCCC3)ccc12	16 nM	
CCOC(=O)c1c(NC(=O)c2ccccc2)sc2c(O)c(CN3CCCCC3)ccc12	13 nM	
CCOC(=O)c1c(NC(=O)c2ccccc2)sc2c(O)c(CN(CC)CC)ccc12	27 nM	Stabilty [1]: Stable; t1/2 [2]: 11 min; Activity (Plasmodium berghei): inactive
CCOC(=O)c1c(NC(=O)c2ccccc2)sc2c(O)c(CN(C)C)ccc12.Cl	24 nM	solubility [3]: Insoluble; Stabilty [4]: Stable; solubility [5]: Insoluble; Drug metabolism [6]: Metabolite detected; Stabilty [7]: Stable; Stabilty [8]: Stable; Stabilty [9]: Unstable
CCOC(=O)c1c(NC(=O)c2ccccc2)sc2c(O)c(CCN(C)C)ccc12	182 nM	
CCOC(=O)c1c(NC(=O)c2ccccc2)sc2c(O)c(CN3CCOCC3)ccc12	100 nM	
CCOC(=O)c1c(NC(=O)c2ccccc2)sc2c(OC)c(CN(CC)CC)ccc12	> 1000 nM	
CCN(CC)Cc1ccc2c(C(=O)NC)c(NC(=O)c3ccccc3)sc2c1O	> 1000 nM	
CCOC(=O)c1c(NC(=O)c2ccccc2)sc2c(O)c(CNC34CC5CC(CC(C5)C3)C4)ccc12	388 nM	
